# Data reported in patent US4937390A, “Compound useful for the production of 3-deoxy-3-fluoro-myo-inositol” (University of Pittsburgh, priority 1989, dated 1990).
# Target: T1, myo-inositol transporter (Rattus norvegicus, UniProt Q80WA5)
# T1 construct: PC12 cells were gently detached and maintained in a suspension culture; endogenous in cells; host or cells: PC12 cells
# T1 sequence (Q80WA5 1-718): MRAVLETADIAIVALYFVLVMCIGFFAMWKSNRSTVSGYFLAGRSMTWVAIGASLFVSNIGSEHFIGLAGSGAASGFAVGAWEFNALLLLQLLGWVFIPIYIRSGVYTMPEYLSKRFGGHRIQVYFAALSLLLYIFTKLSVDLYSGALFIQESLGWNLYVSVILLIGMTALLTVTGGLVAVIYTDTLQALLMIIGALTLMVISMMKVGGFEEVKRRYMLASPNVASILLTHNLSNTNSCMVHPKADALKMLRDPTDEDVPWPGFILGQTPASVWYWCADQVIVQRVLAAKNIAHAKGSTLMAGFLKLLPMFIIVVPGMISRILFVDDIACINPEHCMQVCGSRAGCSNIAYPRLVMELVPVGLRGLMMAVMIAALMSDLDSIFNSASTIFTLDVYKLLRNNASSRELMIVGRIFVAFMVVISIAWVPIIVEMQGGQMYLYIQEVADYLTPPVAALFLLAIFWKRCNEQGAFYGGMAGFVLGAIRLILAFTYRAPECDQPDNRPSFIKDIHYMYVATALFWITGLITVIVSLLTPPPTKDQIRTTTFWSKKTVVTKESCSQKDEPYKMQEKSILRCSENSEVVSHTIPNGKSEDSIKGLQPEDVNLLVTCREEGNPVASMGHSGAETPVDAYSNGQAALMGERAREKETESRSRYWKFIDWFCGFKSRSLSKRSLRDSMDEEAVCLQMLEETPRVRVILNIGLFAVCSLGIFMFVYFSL
# Assay: [3H]myo-inositol uptake by the myo-inositol transporter in PC12 cells
# Format: cell-based
# Settings: for block of [3H]myo-inositol uptake / Maximal Transport Rate Vmax / Ki: PC12 cells; for Maximal Transport Rate Vmax: in the presence of 1 mM analog; for Ki: uptake studies in the presence of a fixed concentration (1 mM) of analog, read-out: Affinity Constant K (Ki of the analog)
# Procedure: To determine if the effect of the fluoro-myo-inositol analogs might be mediated by the blockade of the myo-inositol transporter, which is responsible for uptake and accumulation of myo-inositol into the cell, the ability of these two compounds to block [^3 H]myo-inositol transport was studied directly.
# The uptake of [^3 H]myo-inositol by the myo-inositol transporter was determined as follows:
# PC12 cells were gently detached and maintained in a suspension culture in RPMI medium (both myo-inositol and serum free) at 37° C. ]^3 H]myo-inositol was added to this culture at a concentration of 1μCi/ml. Aliquots of this suspension were removed at the indicated time, diluted in 10 volumes of ice-cold PBS containing 10 mM unlabelled myo-inositol to stop the uptake process, centrifuged at 4° C. for 20 minutes at 50 xg. The cell pellet, which contained the transported [^3 H]myo-inositol, was dissolved in dilute NaOH and the radioactivity quantified by liquid scintillation counting.
# The […] and Vmax of myoinositol were determined from LineweaverBurke plots
# of the uptake of [^3 H]myoinositol (25 nM) in the presence of
# increasing concentrations of unlabeled myoinositol in PC12 cells. The Ki
# of the two fluoromyo-inositol analogs was determined by conducting the
# uptake studies in the presence of a fixed concentration (1 mM) of each
"affinity for the myo-inositol transporter, fold lower than the 3-fluoro-myo-inositol analog [fold]",block of [3H]myo-inositol uptake,Maximal Transport Rate Vmax [nmol/mg/h],Ki [µM],potency in blocking myo-inositol transport relative to the 1-fluoro myo-inositol analog [times],Compound
5.7,did block,2.27,1430,,O[C@@H]1[C@@H](O)[C@@H](O)[C@@H](F)[C@H](O)[C@H]1O [1-deoxy-1-fluoro-myo-inositol]
,did block,2.27,250,5.7,O[C@@H]1[C@@H](O)[C@H](O)[C@@H](F)[C@@H](O)[C@H]1O [3-deoxy-3-fluoro-myo-inositol]
